Legend:
Assay in all cases: Test on herbicidal activity by foliar application
Format in all cases: in vivo
Settings in all cases: foliar spray, 1 kg/ha, plants at 1-2 leaf stage in pots, evaluated 14 days after spraying
Convolvulus arvensis = system: Convolvulus arvensis
Outline: (§1)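 Foliar spray, 1 kg/ha, wettable powder in solution; pot plants at 1-2 leaf stage. Read at 14 d. Score 1-5 (<30%, 30-50%, 50-70%, 70-90%, ≥90% inhibition).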

Galium aparine = system: Galium aparine
Outline: as §1

Abutilon theophrasti = system: Abutilon theophrasti
Outline: as §1

Solanum nigrum = system: Solanum nigrum
Outline: as §1

Setaria viridis = system: Setaria viridis
Outline: as §1

Veronica hederaefolia = system: Veronica hederaefolia
Outline: as §1

Sinapis arvensis = system: Sinapis arvensis
Outline: as §1

Matricaria chamomilla = system: Matricaria chamomilla
Outline: as §1

Amaranthus retroflexus = system: Amaranthus retroflexus
Outline: as §1

Bidens pilosa = system: Bidens pilosa
Outline: as §1

Stellaria media = system: Stellaria media
Outline: as §1

| Structure (SMILES) | Herbicidal activity, Convolvulus arvensis (Convolvulus arvensis) | Herbicidal activity, Galium aparine (Galium aparine) | Herbicidal activity, Abutilon theophrasti (Abutilon theophrasti) | Herbicidal activity, Solanum nigrum (Solanum nigrum) | Herbicidal activity, Setaria viridis (Setaria viridis) | Herbicidal activity, Veronica hederaefolia (Veronica hederaefolia) | Herbicidal activity, Sinapis arvensis (Sinapis arvensis) | Herbicidal activity, Matricaria chamomilla (Matricaria chamomilla) | Herbicidal activity, Amaranthus retroflexus (Amaranthus retroflexus) | Herbicidal activity, Bidens pilosa (Bidens pilosa) | Herbicidal activity, Stellaria media (Stellaria media) |
| --- | --- | --- | --- | --- | --- | --- | --- | --- | --- | --- | --- |
| O=C(NS(=O)(=O)c1c(Cl)cccc1Cl)c1cccc(Cl)n1 [Compound I-591, N-[(2,6-Dichlorophenyl)sulfonyl]-6-chloro-2-pyridinecarboxamide] | 5 (90% or more inhibition) | 5 (90% or more inhibition) | 5 (90% or more inhibition) | 5 (90% or more inhibition) | 1 (less than 30% inhibition) | 5 (90% or more inhibition) | 5 (90% or more inhibition) | 5 (90% or more inhibition) | 5 (90% or more inhibition) | 5 (90% or more inhibition) | 5 (90% or more inhibition) |
| COc1ccc(C(=O)NS(=O)(=O)c2c(Cl)cccc2Cl)nc1 [Compound I-594, N-[(2,6-Dichlorophenyl)sulfonyl]-5-methoxy-2-pyridinecarboxamide] | 2 (30% or more-50% inhibition) | 4 (70% or more-90% inhibition) | 4 (70% or more-90% inhibition) | 2 (30% or more-50% inhibition) | 2 (30% or more-50% inhibition) | 4 (70% or more-90% inhibition) | 5 (90% or more inhibition) | 4 (70% or more-90% inhibition) | 2 (30% or more-50% inhibition) | 4 (70% or more-90% inhibition) | 5 (90% or more inhibition) |
| COc1cc(Cl)nc(C(=O)NS(=O)(=O)c2ccccc2S(=O)(=O)N(C)OC)c1 [Compound I-838, 6-Chloro-4-methoxy-N-[[2-(N-methyl-N-methoxyamino)sulfonyl]phenylsulfonyl]-2-pyridinecarboxamide] | 5 (90% or more inhibition) | 5 (90% or more inhibition) | 5 (90% or more inhibition) | 5 (90% or more inhibition) | 5 (90% or more inhibition) | 4 (70% or more-90% inhibition) | 5 (90% or more inhibition) | 5 (90% or more inhibition) | 4 (70% or more-90% inhibition) | 5 (90% or more inhibition) | 4 (70% or more-90% inhibition) |
| COc1cc(Cl)nc(C(=O)NS(=O)(=O)c2ccccc2S(C)(=O)=O)c1 [Compound I-818, 6-Chloro-4-methoxy-N-[[2-(methylsulfonyl)-phenyl]sulfonyl]-2-pyridinecarboxamide] | 5 (90% or more inhibition) | 5 (90% or more inhibition) | 4 (70% or more-90% inhibition) | 5 (90% or more inhibition) | 5 (90% or more inhibition) | 4 (70% or more-90% inhibition) | 5 (90% or more inhibition) | 5 (90% or more inhibition) | 5 (90% or more inhibition) | 5 (90% or more inhibition) | 5 (90% or more inhibition) |
| Cc1nc(C(=O)NS(=O)(=O)c2ccccc2S(=O)(=O)N(C)C)ccc1[N+](=O)[O-] [Compound I-868, N-[[2-(N,N-Dimethylaminosulfonyl)phenyl]-sulfonyl]-6-methyl-5-nitro-2-pyridinecarboxamide] | 3 (50% or more-70% inhibition) | 5 (90% or more inhibition) | 3 (50% or more-70% inhibition) | 4 (70% or more-90% inhibition) | 3 (50% or more-70% inhibition) | 3 (50% or more-70% inhibition) | 5 (90% or more inhibition) | 2 (30% or more-50% inhibition) | 3 (50% or more-70% inhibition) | 5 (90% or more inhibition) | 4 (70% or more-90% inhibition) |
| COC(=O)c1ccccc1S(=O)(=O)NC(=O)c1ccc(OC)c(Br)n1 [Compound I-265, 2-[[[(6-Bromo-5-methoxypyridin-2-yl)carbonyl]-amino]sulfonyl]benzoic acid methyl ester] | 3 (50% or more-70% inhibition) | 4 (70% or more-90% inhibition) | 5 (90% or more inhibition) | 5 (90% or more inhibition) | 4 (70% or more-90% inhibition) | 3 (50% or more-70% inhibition) | 5 (90% or more inhibition) | 5 (90% or more inhibition) | 5 (90% or more inhibition) | 5 (90% or more inhibition) | 5 (90% or more inhibition) |
| COc1ccc(C(=O)NS(=O)(=O)c2ccccc2OC(F)(F)F)nc1 [Compound I-774, N-[(2-Trifluoromethoxyphenyl)sulfonyl]-5-methoxy-2-pyridinecarboxamide] | 4 (70% or more-90% inhibition) | 4 (70% or more-90% inhibition) | 5 (90% or more inhibition) | 5 (90% or more inhibition) | 5 (90% or more inhibition) | 5 (90% or more inhibition) | 5 (90% or more inhibition) | 5 (90% or more inhibition) | 4 (70% or more-90% inhibition) | 5 (90% or more inhibition) | 5 (90% or more inhibition) |
| COc1cc(Cl)nc(C(=O)NS(=O)(=O)c2ccccc2OC(F)(F)F)c1 [Compound I-795, N-[(2-Trifluoromethoxyphenyl)sulfonyl]-6-chloro-4-methoxy-2-pyridinecarboxamide] | 3 (50% or more-70% inhibition) | 5 (90% or more inhibition) | 4 (70% or more-90% inhibition) | 5 (90% or more inhibition) | 2 (30% or more-50% inhibition) | 5 (90% or more inhibition) | 5 (90% or more inhibition) | 5 (90% or more inhibition) | 4 (70% or more-90% inhibition) | 5 (90% or more inhibition) | 5 (90% or more inhibition) |
